In article PMC5392334, “Discovery and characterization of a novel irreversible EGFR mutants selective and potent kinase inhibitor CHMFL-EGFR-26 with a distinct binding mode” (Oncotarget, 2017):

Key:
LOK = target: T1, LOK (Homo sapiens, UniProt O94804); experiment: KinomeScan; assay type: binding; details: read-out: % control
T1 construct: purchased DiscoveRx KINOMEscan

WEE1 = target: T2, WEE1 (Homo sapiens, UniProt P30291); experiment: KinomeScan; assay type: binding; details: read-out: % control
T2 construct: purchased DiscoveRx KINOMEscan

PKMYT1 = target: T3, PKMYT1 (Homo sapiens, UniProt Q99640); experiment: KinomeScan; assay type: binding; details: read-out: % control
T3 construct: purchased DiscoveRx KINOMEscan

EPHB2 = target: T4, EPHB2 (Homo sapiens, UniProt P29323); experiment: KinomeScan; assay type: binding; details: read-out: % control
T4 construct: purchased DiscoveRx KINOMEscan

SYK = target: T5, SYK (Homo sapiens, UniProt P43405); experiment: KinomeScan; assay type: binding; details: read-out: % control
T5 construct: purchased DiscoveRx KINOMEscan

AMPK-alpha2 = target: T6, AMPK-alpha2 (Homo sapiens, UniProt P54646); experiment: KinomeScan; assay type: binding; details: read-out: % control
T6 construct: purchased DiscoveRx KINOMEscan

WNK1 = target: T7, WNK1 (Homo sapiens, UniProt Q9H4A3); experiment: KinomeScan; assay type: binding; details: read-out: % control
T7 construct: purchased DiscoveRx KINOMEscan

DAPK2 = target: T8, DAPK2 (Homo sapiens, UniProt Q9UIK4); experiment: KinomeScan; assay type: binding; details: read-out: % control
T8 construct: purchased DiscoveRx KINOMEscan

H1975 tumor xenografts = experiment: H1975 cells inoculated xenograft mouse model; details: for Tumor weight (final, mean): 21-day treatment
[1] = target: T9, TYK2(JH2domain-pseudokinase) (Homo sapiens, UniProt P29597); experiment: KinomeScan; assay type: binding; details: read-out: % control
T9 construct: TYK2(JH2domain-pseudokinase); purchased DiscoveRx KINOMEscan

STK39 = target: T10, STK39 (Homo sapiens, UniProt Q9UEW8); experiment: KinomeScan; assay type: binding; details: read-out: % control
T10 construct: purchased DiscoveRx KINOMEscan

BRSK1 = target: T11, BRSK1 (Homo sapiens, UniProt Q8TDC3); experiment: KinomeScan; assay type: binding; details: read-out: % control
T11 construct: purchased DiscoveRx KINOMEscan

CSNK1E = target: T12, CSNK1E (Homo sapiens, UniProt P49674); experiment: KinomeScan; assay type: binding; details: read-out: % control
T12 construct: purchased DiscoveRx KINOMEscan

PAK2 = target: T13, PAK2 (Homo sapiens, UniProt Q13177); experiment: KinomeScan; assay type: binding; details: read-out: % control
T13 construct: purchased DiscoveRx KINOMEscan

MAP4K2 = target: T14, MAP4K2 (Homo sapiens, UniProt Q12851); experiment: KinomeScan; assay type: binding; details: read-out: % control
T14 construct: purchased DiscoveRx KINOMEscan

INSRR = target: T15, INSRR (Homo sapiens, UniProt P14616); experiment: KinomeScan; assay type: binding; details: read-out: % control
T15 construct: purchased DiscoveRx KINOMEscan

MRCKB = target: T16, MRCKB (Homo sapiens, UniProt Q9Y5S2); experiment: KinomeScan; assay type: binding; details: read-out: % control
T16 construct: purchased DiscoveRx KINOMEscan

LIMK2 = target: T17, LIMK2 (Homo sapiens, UniProt P53671); experiment: KinomeScan; assay type: binding; details: read-out: % control
T17 construct: purchased DiscoveRx KINOMEscan

CDKL2 = target: T18, CDKL2 (Homo sapiens, UniProt Q92772); experiment: KinomeScan; assay type: binding; details: read-out: % control
T18 construct: purchased DiscoveRx KINOMEscan

CSNK1A1 = target: T19, CSNK1A1 (Homo sapiens, UniProt P48729); experiment: KinomeScan; assay type: binding; details: read-out: % control
T19 construct: purchased DiscoveRx KINOMEscan

PKAC-beta = target: T20, PKAC-beta (Homo sapiens, UniProt P22694); experiment: KinomeScan; assay type: binding; details: read-out: % control
T20 construct: purchased DiscoveRx KINOMEscan

AAK1 = target: T21, AAK1 (Homo sapiens, UniProt Q2M2I8); experiment: KinomeScan; assay type: binding; details: read-out: % control
T21 construct: purchased DiscoveRx KINOMEscan

BaF3-TEL-EGFR-T790M = experiment: Anti-proliferation, BaF3 isogenic cell lines (CellTiter-Glo); assay type: cell-based; details: Mus musculus, 72 hours, triplet testing
[2] = target: T22, RPS6KA5(Kin.Dom.1-N-terminal) (Homo sapiens, UniProt O75582); experiment: KinomeScan; assay type: binding; details: read-out: % control
T22 construct: RPS6KA5(Kin.Dom.1-N-terminal); purchased DiscoveRx KINOMEscan

PIK3CA(M1043I) = target: T23, PIK3CA(M1043I) (Homo sapiens, UniProt P42336, M1043I); experiment: KinomeScan; assay type: binding; details: read-out: % control
T23 construct: purchased DiscoveRx KINOMEscan

MAP3K1 = target: T24, MAP3K1 (Homo sapiens, UniProt Q13233); experiment: KinomeScan; assay type: binding; details: read-out: % control
T24 construct: purchased DiscoveRx KINOMEscan

MLK2 = target: T25, MLK2 (Homo sapiens, UniProt Q02779); experiment: KinomeScan; assay type: binding; details: read-out: % control
T25 construct: purchased DiscoveRx KINOMEscan

S6K1 = target: T26, S6K1 (Homo sapiens, UniProt P23443); experiment: KinomeScan; assay type: binding; details: read-out: % control
T26 construct: purchased DiscoveRx KINOMEscan

ARK5 = target: T27, ARK5 (Homo sapiens, UniProt O60285); experiment: KinomeScan; assay type: binding; details: read-out: % control
T27 construct: purchased DiscoveRx KINOMEscan

MST1R = target: T28, MST1R (Homo sapiens, UniProt Q04912); experiment: KinomeScan; assay type: binding; details: read-out: % control
T28 construct: purchased DiscoveRx KINOMEscan

ERBB4 = target: T29, ERBB4 (Homo sapiens, UniProt Q15303); experiment: KinomeScan; assay type: binding; details: read-out: % control
T29 construct: purchased DiscoveRx KINOMEscan

PAK7 = target: T30, PAK7 (Homo sapiens, UniProt Q9P286); experiment: KinomeScan; assay type: binding; details: read-out: % control
T30 construct: purchased DiscoveRx KINOMEscan

MERTK = target: T31, MERTK (Homo sapiens, UniProt Q12866); experiment: KinomeScan; assay type: binding; details: read-out: % control
T31 construct: purchased DiscoveRx KINOMEscan

EGFR = target: T32, EGFR (Homo sapiens, UniProt P00533); experiment: KinomeScan; assay type: binding; details: read-out: % control
T32 construct: purchased DiscoveRx KINOMEscan

LRRK2 = target: T33, LRRK2 (Homo sapiens, UniProt Q5S007); experiment: KinomeScan; assay type: binding; details: read-out: % control
T33 construct: purchased DiscoveRx KINOMEscan

EPHA4 = target: T34, EPHA4 (Homo sapiens, UniProt P54764); experiment: KinomeScan; assay type: binding; details: read-out: % control
T34 construct: purchased DiscoveRx KINOMEscan

PCTK1 = target: T35, PCTK1 (Homo sapiens, UniProt Q00536); experiment: KinomeScan; assay type: binding; details: read-out: % control
T35 construct: purchased DiscoveRx KINOMEscan

PIK3C2B = target: T36, PIK3C2B (Homo sapiens, UniProt O00750); experiment: KinomeScan; assay type: binding; details: read-out: % control
T36 construct: purchased DiscoveRx KINOMEscan

YSK1 = target: T37, YSK1 (Homo sapiens, UniProt O00506); experiment: KinomeScan; assay type: binding; details: read-out: % control
T37 construct: purchased DiscoveRx KINOMEscan

RET = target: T38, RET (Homo sapiens, UniProt P07949); experiment: KinomeScan; assay type: binding; details: read-out: % control
T38 construct: purchased DiscoveRx KINOMEscan

MKK7 = target: T39, MKK7 (Homo sapiens, UniProt O14733); experiment: KinomeScan; assay type: binding; details: read-out: % control
T39 construct: purchased DiscoveRx KINOMEscan

[3] = H1975 xenograft, 25.0 mg/kg/d oral
[4] = H1975 xenograft, 50.0 mg/kg/d oral
[5] = H1975 xenograft, 100 mg/kg/d oral

T38 sequence (P07949 29-1114): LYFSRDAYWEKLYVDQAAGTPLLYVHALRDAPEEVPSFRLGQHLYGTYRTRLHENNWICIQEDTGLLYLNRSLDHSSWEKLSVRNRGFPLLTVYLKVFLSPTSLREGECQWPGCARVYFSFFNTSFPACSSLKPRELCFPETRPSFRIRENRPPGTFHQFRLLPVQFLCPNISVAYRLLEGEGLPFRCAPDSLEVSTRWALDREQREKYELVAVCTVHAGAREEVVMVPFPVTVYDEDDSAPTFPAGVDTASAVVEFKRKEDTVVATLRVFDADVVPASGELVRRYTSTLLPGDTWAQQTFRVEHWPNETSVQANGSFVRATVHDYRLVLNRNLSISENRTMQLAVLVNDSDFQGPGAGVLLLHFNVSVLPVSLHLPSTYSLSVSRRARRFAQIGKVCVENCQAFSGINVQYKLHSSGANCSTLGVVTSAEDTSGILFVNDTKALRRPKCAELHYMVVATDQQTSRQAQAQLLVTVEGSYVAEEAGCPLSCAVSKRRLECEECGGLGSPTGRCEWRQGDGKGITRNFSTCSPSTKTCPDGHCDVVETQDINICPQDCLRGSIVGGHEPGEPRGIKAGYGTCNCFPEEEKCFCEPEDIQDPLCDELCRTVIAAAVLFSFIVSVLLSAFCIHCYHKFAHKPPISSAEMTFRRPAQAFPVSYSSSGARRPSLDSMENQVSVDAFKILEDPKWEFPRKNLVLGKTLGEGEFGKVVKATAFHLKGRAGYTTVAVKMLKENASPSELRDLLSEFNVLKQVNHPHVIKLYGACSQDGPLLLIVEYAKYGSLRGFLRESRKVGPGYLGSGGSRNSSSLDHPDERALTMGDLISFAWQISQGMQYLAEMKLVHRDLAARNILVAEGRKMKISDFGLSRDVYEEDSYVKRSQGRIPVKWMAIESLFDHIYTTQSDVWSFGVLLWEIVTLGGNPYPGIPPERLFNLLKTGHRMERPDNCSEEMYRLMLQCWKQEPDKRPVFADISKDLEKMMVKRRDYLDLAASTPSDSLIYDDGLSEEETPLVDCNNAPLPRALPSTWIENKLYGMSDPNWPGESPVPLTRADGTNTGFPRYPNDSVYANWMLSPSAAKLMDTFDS
T28 sequence (Q04912 25-1400): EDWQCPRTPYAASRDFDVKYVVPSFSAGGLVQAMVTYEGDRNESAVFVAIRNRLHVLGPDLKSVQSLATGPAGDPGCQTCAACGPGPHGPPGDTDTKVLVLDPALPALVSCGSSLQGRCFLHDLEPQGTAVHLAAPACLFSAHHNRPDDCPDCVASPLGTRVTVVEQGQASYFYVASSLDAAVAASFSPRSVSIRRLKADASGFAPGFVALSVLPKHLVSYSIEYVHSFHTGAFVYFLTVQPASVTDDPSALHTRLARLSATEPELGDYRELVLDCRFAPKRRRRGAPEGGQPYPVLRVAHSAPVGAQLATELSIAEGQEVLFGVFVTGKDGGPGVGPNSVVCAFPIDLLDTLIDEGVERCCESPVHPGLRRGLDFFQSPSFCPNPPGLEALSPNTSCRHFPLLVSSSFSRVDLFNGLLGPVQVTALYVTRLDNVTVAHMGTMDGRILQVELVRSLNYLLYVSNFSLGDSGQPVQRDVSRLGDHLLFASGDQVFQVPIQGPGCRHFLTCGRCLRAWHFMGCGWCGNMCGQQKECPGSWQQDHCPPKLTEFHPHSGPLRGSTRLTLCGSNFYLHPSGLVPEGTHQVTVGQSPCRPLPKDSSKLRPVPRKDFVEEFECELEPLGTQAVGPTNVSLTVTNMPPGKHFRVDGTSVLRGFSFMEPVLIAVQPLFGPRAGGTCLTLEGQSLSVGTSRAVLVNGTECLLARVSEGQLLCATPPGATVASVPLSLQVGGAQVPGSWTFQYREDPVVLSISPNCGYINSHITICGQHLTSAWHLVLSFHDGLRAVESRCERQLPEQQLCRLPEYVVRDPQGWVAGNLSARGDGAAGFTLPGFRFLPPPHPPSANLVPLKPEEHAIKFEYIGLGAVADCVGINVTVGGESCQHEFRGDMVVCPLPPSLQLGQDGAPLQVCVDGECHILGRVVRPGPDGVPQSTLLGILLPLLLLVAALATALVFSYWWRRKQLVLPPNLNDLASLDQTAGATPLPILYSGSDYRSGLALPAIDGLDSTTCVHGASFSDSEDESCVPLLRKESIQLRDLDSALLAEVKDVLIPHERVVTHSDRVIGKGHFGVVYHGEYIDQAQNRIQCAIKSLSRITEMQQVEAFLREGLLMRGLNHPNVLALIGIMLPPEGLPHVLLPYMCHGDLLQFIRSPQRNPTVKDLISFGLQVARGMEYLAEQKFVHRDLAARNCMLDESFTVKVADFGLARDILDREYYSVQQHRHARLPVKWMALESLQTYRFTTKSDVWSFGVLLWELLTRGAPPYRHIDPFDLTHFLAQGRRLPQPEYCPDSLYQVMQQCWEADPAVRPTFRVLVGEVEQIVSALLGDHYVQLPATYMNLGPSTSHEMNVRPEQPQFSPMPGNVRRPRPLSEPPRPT
T35 sequence (Q00536 whole entry): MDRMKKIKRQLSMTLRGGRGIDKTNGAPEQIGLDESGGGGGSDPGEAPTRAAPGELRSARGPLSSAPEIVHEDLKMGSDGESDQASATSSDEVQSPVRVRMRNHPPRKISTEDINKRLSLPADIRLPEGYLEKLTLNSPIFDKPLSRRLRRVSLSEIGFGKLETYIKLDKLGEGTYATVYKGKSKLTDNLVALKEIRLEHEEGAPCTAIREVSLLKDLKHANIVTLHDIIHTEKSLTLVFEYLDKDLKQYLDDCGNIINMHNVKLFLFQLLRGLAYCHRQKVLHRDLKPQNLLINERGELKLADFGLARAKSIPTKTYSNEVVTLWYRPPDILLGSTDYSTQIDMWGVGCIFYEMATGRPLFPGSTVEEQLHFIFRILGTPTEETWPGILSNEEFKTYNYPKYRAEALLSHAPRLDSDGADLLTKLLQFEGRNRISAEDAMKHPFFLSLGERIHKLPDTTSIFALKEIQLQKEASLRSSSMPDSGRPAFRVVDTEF
T23 sequence (P42336 whole entry M1043I): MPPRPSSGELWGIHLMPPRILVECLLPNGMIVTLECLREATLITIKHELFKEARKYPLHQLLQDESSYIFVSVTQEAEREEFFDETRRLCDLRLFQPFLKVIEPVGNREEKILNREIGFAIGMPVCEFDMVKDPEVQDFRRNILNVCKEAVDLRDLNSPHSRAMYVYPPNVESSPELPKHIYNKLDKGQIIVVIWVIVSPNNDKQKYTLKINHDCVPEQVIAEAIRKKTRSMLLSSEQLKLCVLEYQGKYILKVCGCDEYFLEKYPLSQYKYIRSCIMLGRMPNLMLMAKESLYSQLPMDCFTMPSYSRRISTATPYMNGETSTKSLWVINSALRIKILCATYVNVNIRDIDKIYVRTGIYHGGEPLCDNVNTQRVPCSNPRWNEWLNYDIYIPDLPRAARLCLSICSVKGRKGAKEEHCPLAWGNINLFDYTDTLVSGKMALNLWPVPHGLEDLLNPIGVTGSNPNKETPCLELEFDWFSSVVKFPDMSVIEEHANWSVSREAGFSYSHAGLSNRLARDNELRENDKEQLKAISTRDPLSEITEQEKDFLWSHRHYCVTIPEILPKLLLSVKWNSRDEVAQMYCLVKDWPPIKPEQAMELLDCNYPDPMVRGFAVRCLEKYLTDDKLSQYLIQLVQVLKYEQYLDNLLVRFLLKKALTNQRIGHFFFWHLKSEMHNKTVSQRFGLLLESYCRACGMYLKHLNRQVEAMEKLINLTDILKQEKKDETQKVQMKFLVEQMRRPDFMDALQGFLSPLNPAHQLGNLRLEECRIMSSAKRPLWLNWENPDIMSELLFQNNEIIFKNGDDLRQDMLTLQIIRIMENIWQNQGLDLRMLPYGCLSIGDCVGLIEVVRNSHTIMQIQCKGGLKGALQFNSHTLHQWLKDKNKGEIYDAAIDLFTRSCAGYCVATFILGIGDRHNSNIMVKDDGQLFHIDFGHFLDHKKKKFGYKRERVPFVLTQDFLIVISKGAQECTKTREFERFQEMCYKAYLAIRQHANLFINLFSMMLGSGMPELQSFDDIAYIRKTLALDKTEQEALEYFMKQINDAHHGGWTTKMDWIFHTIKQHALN
T3 sequence (Q99640 whole entry): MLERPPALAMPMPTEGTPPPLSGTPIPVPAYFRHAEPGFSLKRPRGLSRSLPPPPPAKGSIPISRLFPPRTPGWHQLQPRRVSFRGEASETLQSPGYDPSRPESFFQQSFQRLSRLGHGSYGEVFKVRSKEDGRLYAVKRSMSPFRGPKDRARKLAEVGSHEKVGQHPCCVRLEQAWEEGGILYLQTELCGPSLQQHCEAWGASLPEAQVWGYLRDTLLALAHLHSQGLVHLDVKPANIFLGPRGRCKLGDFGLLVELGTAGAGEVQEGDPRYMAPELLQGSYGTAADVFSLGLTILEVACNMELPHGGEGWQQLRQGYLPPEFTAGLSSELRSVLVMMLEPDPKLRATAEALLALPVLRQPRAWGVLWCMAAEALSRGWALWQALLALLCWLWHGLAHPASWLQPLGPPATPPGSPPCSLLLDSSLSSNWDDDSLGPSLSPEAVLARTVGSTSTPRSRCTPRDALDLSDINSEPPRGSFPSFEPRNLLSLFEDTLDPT
T26 sequence (P23443 whole entry): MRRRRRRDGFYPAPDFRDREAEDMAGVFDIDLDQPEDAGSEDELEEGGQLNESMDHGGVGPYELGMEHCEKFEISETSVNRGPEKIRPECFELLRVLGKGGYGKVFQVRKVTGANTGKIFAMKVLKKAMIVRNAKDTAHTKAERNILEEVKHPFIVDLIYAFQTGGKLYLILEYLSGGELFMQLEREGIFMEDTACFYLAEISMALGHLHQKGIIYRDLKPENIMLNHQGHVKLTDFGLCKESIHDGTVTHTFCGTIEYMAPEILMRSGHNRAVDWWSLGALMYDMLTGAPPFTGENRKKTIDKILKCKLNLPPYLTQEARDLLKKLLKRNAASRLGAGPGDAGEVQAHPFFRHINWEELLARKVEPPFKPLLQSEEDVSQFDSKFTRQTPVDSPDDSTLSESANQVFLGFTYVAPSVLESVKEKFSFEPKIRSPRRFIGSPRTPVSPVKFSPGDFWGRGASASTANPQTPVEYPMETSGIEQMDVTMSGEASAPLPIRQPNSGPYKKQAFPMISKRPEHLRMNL

C=CC(=O)N1CCC[C@@H](n2nc(-c3ccc(OCc4cccc(C)n4)c(Cl)c3)c3c(N)ncnc32)C1 [CHMFL-EGFR-26]
remaining binding at 1 µM (LOK): 0.2%
remaining binding at 1 µM (WEE1): 85%
remaining binding at 1 µM (PKMYT1): 92%
remaining binding at 1 µM (EPHB2): 100%
remaining binding at 1 µM (SYK): 94%
remaining binding at 1 µM (AMPK-alpha2): 90%
remaining binding at 1 µM (WNK1): 100%
remaining binding at 1 µM (DAPK2): 100%
TGI (tumor growth inhibition rate) (H1975 tumor xenografts; [3]): 23.0%
Tumor weight (final, mean) (H1975 tumor xenografts; [3]): 1.37 g
TGI (tumor growth inhibition rate) (H1975 tumor xenografts; [4]): 48.9%
Tumor weight (final, mean) (H1975 tumor xenografts; [4]): 0.91 g
TGI (tumor growth inhibition rate) (H1975 tumor xenografts; [5]): 60.1%
Tumor weight (final, mean) (H1975 tumor xenografts; [5]): 0.71 g
toxicity (body weight) (H1975 tumor xenografts; H1975 xenograft, oral 25, 50 and 100mg/kg/day): did not show any apparent toxicity
hyperglycemia (H1975 tumor xenografts; preclinical mouse model study): no hyperglycemia phenomenon was observed
remaining binding at 1 µM [1]: 97%
remaining binding at 1 µM (STK39): 92%
remaining binding at 1 µM (BRSK1): 93%
remaining binding at 1 µM (CSNK1E): 9.1%
remaining binding at 1 µM (PAK2): 77%
remaining binding at 1 µM (MAP4K2): 100%
remaining binding at 1 µM (INSRR): 100%
remaining binding at 1 µM (MRCKB): 80%
remaining binding at 1 µM (LIMK2): 100%
remaining binding at 1 µM (CDKL2): 100%
remaining binding at 1 µM (CSNK1A1): 100%
remaining binding at 1 µM (PKAC-beta): 14%
remaining binding at 1 µM (AAK1): 96%
GI50 (BaF3-TEL-EGFR-T790M): < 0.3 nM
remaining binding at 1 µM [2]: 100%
remaining binding at 1 µM (PIK3CA(M1043I)): 100%
remaining binding at 1 µM (MAP3K1): 82%
remaining binding at 1 µM (MLK2): 80%
remaining binding at 1 µM (S6K1): 100%
remaining binding at 1 µM (ARK5): 77%
remaining binding at 1 µM (MST1R): 100%
remaining binding at 1 µM (ERBB4): 0.45%
remaining binding at 1 µM (PAK7): 67%
remaining binding at 1 µM (MERTK): 79%
remaining binding at 1 µM (EGFR): 0.8%
remaining binding at 1 µM (LRRK2): 100%
remaining binding at 1 µM (EPHA4): 100%
remaining binding at 1 µM (PCTK1): 100%
remaining binding at 1 µM (PIK3C2B): 100%
remaining binding at 1 µM (YSK1): 20%
remaining binding at 1 µM (RET): 95%
remaining binding at 1 µM (MKK7): 2.5%
